Test results: patent US20060287252A1, “Substances k01-0509 and process for producing the same” (priority 2004, published 2006)

What was measured:
Format in all cases: cell-based
[1] = system: enteropathogenic E. coli E2348/69 (wild strain)
[2] = system: Xanthomonas campestris pv. oryzae KB88
[3] = system: Bacillus subtilis ATCC 6633; assay: Antibiotic activity by paper disc method; conditions: 10 μg/disc, paper disc 6 mm, nutrient agar, 24 hours cultivation
[4] = system: Micrococcus luteus ATCC 9341; assay: Antibiotic activity by paper disc method; conditions: 10 μg/disc, paper disc 6 mm, nutrient agar, 24 hours cultivation
E. coli NIHJ = assay: Antibiotic activity by paper disc method; conditions: 10 μg/disc, paper disc 6 mm, nutrient agar, 24 hours cultivation

Measured: inhibition zone

CC(NC(=O)C1NC(C)C(=O)NC1CCC(O)C(O)CC1CNC(=N)N1C(N)=O)C(=O)NC(C(=O)O)C(C)C (stereo not shown) [K01-0509-A2 substance]
no inhibition zone: [1] | [2]

CC(NC(=O)C1NC(C)C(=O)NC1CCC(O)C(O)CC1CNC(=N)N1C(N)=O)C(=O)NC(C(=O)O)C(C)C (stereo not shown) [K01-0509-A1 substance]
no inhibition zone: all assays above
